Consider one compound from paper PMC3226492, “Isomer Profiles of Perfluorochemicals in Matched Maternal, Cord, and House Dust Samples: Manufacturing Sources and Transplacental Transfer” (Environmental Health Perspectives, 2011).

For series [1] the following is noted: cited from earlier work.
The nature of series [2]: Total PFC concentrations in maternal and cord sera by HPLC-MS/MS. It is filed as in vivo, human. As to the method:
Blood collection. Samples (n = 20) analyzed in this study are a subset of the Chemicals, Health and Pregnancy (CHirP) cohort recruited in 2007–2008 in Vancouver (BC, Canada) ([Webster et al. 2011]). All participants provided informed consent. Laboratory personnel collected blood samples from pregnant volunteers in Vancouver at 15 weeks of gestation, and samples of cord blood (n = 20) were collected at delivery. After serum separation, all samples were stored at –80°C. Ethical clearance was obtained from the research ethics boards of the University of British Columbia, the University of Alberta, Health Canada, and the three participating hospitals.
Serum preparation. The method of [Kuklenyik et al. (2004)] was adapted for the extraction of PFCs from serum using a Rapid Trace system (Caliper Life Sciences, Hopkinton, MA, USA). The solid-phase extraction cartridge (Oasis-HLB, Waters, Milford, MA, USA; 60 mg/3 mL) was conditioned with 2 mL methanol followed by 2 mL of 0.1 M formic acid. Serum was prepared for extraction by mixing 3 mL of 0.1 M formic acid with 1.0 mL serum. After the addition of mass-labeled internal standards (10 ng each), the mixture was vortexed and sonicated for 20 min. Prepared serum was added to the column and washed successively with 3 mL of 0.1 M formic acid, 6 mL of 50% 0.1 M formic acid/50% methanol, and 1 mL of 1% ammonium hydroxide. The cartridge was drained by vacuum, and PFCs were eluted with 1.0 mL of 1% ammonium hydroxide in acetonitrile. The eluate was concentrated to 100 μL followed by the addition of 200 μL of 90% 20 mM acetic acid in 10% methanol. Method blanks containing calf serum, a calf serum sample spiked at 0.5 ng/mL of each PFC, and a human serum sample spiked at 10 ng/mL were analyzed with the study samples.
Total PFC analysis. For total PFC concentrations, separation was by HPLC on a 150-mm Synergi Hydro-RP C-18 column (Phenomenex, Torrance, CA, USA). Gradient elution at 600 μL/min used A [20 mM ammonium acetate (pH 4) in water] and B (methanol) mobile phases. Initial conditions were 60% A for 1 min, ramped to 20% A by 3 min, a 5-min hold, an increase to 100% B by 8.5 min, and a hold until 14 min, at which time initial conditions were reestablished. MS/MS data were collected on an Applied Biosystems API 3000 mass spectrometer (Applied Biosystems, Carlsbad, CA, USA) using electrospray ionization in negative-ion mode [for mean recoveries of total PFCs in serum and dust, see Supplemental Material, Table 1 (http://dx.doi.org/10.1289/ehp.1003265)].

A short description of series [3]: Transplacental transfer efficiency (TTE): cord serum at delivery divided by maternal serum concentration, present study. In kind it is in vivo, human. The conditions noted are these: for Mean cord:maternal serum concentration: Present study.
The mark [4] stands for this setting: cord serum at delivery / maternal serum at 15 weeks of gestation.

Like-named read-outs stand apart in the source and are kept apart here.

Regarding `O=S(=O)(O)C(F)(F)C(F)(F)C(F)(F)C(F)(F)C(F)(F)C(F)(F)C(F)(F)C(F)(F)F` [Total PFOS, perfluorooctane sulfonate], the “Mean cord:maternal serum concentration” value in series [1] (Canada, 2004–2005, n 101, ref Monroy et al. 2008) was 0.45; in series [1] (Denmark, 1996–2002, n 50, maternal serum sampled in the first trimester, ref Fei et al. 2007), 0.29; in series [1] (Denmark, 1996–2002, n 50, maternal serum sampled in the second trimester, ref Fei et al. 2007), 0.34; in series [1] (Faroe Islands, 2000, n 12, ref Needham et al. 2011), 0.34; in series [1] (Germany, 2003, n 11, ref Midasch et al. 2007) it was 0.60; in series [1] (Germany, 2007–2009, n 27, ref Fromme et al. 2010) it was 0.30. In addition, the “Mean cord:maternal serum concentration” value in series [1] (Japan, 2003, n 15, ref Inoue et al. 2004) is reported as 0.32; in series [1] (Korea, 2007, n 20, ref Kim et al. 2011), 0.36; in series [1] (South Africa, 2005–2006, n 58, ref Hanssen et al. 2010), 0.45; in series [3] (Canada, 2007, n 20, maternal serum sampled in the second trimester), 0.33; in series [3] (TTE adjusted from 15 weeks to time of delivery (~ 40 weeks) using data from Monroy et al. (2008)), 0.36. Also, in series [2] (cord serum at delivery), the “mean concentration in cord serum” value is on record as 1.8 ng/mL. For the same compound, the “mean concentration in maternal serum” value in series [2] (maternal serum, 15 weeks of gestation) was 5.5 ng/mL. Also, the “TTE calculated from cord:maternal serum concentrations, arithmetic mean” value in series [3] (setting [4]) is 0.33. In series [3] (setting [4]), the “TTE calculated from cord:maternal serum concentrations, maximum” value is recorded as 0.53. Also, the “TTE calculated from cord:maternal serum concentrations, median” value in series [3] (setting [4]) was 0.31. For the same compound, in series [3] (setting [4]), the “TTE calculated from cord:maternal serum concentrations, minimum” value is 0.20.
